Where two headings read alike, the source gives them in different places.
How the values were obtained:
TNK1 = target: T1, TNK1 (Homo sapiens, UniProt Q13470); test: SelectScreen kinase assay
T1 sequence (Q13470 1-666): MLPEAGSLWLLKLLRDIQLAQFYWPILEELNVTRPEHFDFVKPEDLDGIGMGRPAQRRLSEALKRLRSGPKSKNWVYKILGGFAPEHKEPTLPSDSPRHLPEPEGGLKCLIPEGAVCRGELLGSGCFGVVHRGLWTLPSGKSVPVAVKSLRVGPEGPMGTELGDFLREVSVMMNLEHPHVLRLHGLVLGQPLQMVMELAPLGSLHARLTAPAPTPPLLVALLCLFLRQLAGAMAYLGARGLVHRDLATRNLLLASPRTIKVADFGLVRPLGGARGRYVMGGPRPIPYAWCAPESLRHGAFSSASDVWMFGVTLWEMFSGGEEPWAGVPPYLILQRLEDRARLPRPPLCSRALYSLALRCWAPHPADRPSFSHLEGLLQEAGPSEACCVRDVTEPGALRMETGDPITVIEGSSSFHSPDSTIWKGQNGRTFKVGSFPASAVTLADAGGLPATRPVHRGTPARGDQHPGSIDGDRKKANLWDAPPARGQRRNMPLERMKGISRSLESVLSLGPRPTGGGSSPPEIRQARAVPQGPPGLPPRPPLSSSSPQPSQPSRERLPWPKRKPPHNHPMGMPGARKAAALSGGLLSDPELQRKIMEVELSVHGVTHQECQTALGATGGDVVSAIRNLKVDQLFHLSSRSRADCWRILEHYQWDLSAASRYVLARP
Experimental: (§1) Selectivity profiling assays were performed by the Invitrogen SelectScreen™ Services. […] The concentration of ATP was selected to be equal to the KM, unless indicated otherwise.

STK33 = STK33 (Homo sapiens, UniProt Q9BYT3); test: SelectScreen kinase assay
Experimental: as §1

FES^S700C HL-60 cells = test: Morphological inspection after PMA-induced differentiation; type: cell-based, human
Experimental: One day prior to induction of differentiation, cells were diluted to 0.4 × 10^6 cells/mL. […] Neutrophil differentiation was induced by addition of all-trans-retinoic acid (1 µM) and dimethylsulfoxide (1.25%) for 72–96 h. For morphological inspection, images were taken on an EVOS FL Auto 2 Imaging System (Thermo Fisher) at ×20 magnification.
Supplementary Figure 10. Analysis of putative sgRNA off-target site. Analysis of the only predicted coding off-target of the sgRNA target sequence employed for FESS700C mutagenesis, located in the TTC16 gene. Genomic region surrounding putative off-target site was amplified by PCR, followed by Sanger sequencing analysis. No off-target gene editing events were observed.
Supplementary Figure 11. Morphological inspection of WT and FESS700C HL-60 cells after PMA-induced differentiation towards macrophages. Cells were treated with vehicle or indicated concentrations of WEL028 during PMA-induced differentiation toward macrophages. Wild-type and […]
are representative for multiple acquired images at 20x magnification from replicates (n = 3).
(also on this page, place not known: off -target off -target FES S700C PMA -induced W ild-type PAM Predicted TTC16 (NM_144965) HL-60 WT HL-60 125 μm Non-differentiated PMA (16 nM, 48 h) HL-60 WTHL-60 FESS700C Vehicle Vehicle WEL028 (100 nM) WEL028 (1 µM))

LATS2 = target: T2, LATS2 (Homo sapiens, UniProt Q9NRM7); test: SelectScreen kinase assay; conditions: for Inhibition at 1 µM (%): LATS2, LanthaScreen Binding
T2 sequence (Q9NRM7 1-1088): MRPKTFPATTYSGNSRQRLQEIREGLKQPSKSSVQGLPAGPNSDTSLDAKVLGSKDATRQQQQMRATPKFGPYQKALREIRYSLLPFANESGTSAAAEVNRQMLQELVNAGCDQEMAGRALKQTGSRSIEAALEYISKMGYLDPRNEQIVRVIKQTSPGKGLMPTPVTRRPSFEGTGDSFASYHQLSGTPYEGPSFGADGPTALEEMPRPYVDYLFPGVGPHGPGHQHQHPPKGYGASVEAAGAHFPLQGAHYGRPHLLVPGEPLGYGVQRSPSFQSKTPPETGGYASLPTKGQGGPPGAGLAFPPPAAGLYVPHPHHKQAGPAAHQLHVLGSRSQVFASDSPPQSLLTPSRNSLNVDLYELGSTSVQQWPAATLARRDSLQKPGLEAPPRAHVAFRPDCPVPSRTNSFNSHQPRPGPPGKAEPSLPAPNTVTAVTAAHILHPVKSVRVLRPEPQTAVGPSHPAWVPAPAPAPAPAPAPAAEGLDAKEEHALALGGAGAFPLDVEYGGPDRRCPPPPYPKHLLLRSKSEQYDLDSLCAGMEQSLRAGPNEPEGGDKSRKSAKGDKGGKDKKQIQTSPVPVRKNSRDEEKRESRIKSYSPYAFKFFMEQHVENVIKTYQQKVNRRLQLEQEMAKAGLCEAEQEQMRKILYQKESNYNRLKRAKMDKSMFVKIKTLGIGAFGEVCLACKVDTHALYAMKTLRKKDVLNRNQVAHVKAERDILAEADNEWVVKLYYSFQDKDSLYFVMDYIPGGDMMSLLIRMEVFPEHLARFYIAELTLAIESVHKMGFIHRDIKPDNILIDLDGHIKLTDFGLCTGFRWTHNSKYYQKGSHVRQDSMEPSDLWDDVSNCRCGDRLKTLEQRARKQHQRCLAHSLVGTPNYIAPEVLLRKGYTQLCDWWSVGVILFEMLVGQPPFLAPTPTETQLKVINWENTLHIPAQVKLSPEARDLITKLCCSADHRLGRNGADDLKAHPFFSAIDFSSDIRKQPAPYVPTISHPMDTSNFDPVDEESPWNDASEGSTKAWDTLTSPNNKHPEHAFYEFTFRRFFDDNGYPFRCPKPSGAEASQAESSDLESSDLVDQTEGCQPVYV
Experimental: as §1

CDK8/cyclin C = CDK8/cyclin C (Homo sapiens, UniProt P49336); test: SelectScreen kinase assay; conditions: read-out: Inhibition at 1 µM (%)
Experimental: as §1

CDC42 BPA (MRCKA) = CDC42 BPA (MRCKA) (Homo sapiens, UniProt Q5VT25); test: SelectScreen kinase assay
Experimental: as §1

[1] = 1 h, 1 μM WEL028, 1 h preincubation

Chain of STK33 (Q9BYT3 whole entry, species assumed): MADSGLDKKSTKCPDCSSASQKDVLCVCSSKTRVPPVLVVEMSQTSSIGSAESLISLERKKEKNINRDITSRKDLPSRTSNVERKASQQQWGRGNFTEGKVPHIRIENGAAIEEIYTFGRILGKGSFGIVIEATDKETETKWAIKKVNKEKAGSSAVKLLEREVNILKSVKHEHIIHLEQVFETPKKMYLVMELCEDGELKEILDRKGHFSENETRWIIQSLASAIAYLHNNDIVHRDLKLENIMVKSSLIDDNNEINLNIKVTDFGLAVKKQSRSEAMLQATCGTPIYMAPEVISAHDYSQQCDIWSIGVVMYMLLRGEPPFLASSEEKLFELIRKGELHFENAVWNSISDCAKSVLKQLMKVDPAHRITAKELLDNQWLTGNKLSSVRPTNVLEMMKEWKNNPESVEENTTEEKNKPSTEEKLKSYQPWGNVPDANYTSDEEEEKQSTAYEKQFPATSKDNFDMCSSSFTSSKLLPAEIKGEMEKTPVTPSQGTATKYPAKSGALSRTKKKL
Chain of CDC42 BPA (MRCKA) (Q5VT25 whole entry): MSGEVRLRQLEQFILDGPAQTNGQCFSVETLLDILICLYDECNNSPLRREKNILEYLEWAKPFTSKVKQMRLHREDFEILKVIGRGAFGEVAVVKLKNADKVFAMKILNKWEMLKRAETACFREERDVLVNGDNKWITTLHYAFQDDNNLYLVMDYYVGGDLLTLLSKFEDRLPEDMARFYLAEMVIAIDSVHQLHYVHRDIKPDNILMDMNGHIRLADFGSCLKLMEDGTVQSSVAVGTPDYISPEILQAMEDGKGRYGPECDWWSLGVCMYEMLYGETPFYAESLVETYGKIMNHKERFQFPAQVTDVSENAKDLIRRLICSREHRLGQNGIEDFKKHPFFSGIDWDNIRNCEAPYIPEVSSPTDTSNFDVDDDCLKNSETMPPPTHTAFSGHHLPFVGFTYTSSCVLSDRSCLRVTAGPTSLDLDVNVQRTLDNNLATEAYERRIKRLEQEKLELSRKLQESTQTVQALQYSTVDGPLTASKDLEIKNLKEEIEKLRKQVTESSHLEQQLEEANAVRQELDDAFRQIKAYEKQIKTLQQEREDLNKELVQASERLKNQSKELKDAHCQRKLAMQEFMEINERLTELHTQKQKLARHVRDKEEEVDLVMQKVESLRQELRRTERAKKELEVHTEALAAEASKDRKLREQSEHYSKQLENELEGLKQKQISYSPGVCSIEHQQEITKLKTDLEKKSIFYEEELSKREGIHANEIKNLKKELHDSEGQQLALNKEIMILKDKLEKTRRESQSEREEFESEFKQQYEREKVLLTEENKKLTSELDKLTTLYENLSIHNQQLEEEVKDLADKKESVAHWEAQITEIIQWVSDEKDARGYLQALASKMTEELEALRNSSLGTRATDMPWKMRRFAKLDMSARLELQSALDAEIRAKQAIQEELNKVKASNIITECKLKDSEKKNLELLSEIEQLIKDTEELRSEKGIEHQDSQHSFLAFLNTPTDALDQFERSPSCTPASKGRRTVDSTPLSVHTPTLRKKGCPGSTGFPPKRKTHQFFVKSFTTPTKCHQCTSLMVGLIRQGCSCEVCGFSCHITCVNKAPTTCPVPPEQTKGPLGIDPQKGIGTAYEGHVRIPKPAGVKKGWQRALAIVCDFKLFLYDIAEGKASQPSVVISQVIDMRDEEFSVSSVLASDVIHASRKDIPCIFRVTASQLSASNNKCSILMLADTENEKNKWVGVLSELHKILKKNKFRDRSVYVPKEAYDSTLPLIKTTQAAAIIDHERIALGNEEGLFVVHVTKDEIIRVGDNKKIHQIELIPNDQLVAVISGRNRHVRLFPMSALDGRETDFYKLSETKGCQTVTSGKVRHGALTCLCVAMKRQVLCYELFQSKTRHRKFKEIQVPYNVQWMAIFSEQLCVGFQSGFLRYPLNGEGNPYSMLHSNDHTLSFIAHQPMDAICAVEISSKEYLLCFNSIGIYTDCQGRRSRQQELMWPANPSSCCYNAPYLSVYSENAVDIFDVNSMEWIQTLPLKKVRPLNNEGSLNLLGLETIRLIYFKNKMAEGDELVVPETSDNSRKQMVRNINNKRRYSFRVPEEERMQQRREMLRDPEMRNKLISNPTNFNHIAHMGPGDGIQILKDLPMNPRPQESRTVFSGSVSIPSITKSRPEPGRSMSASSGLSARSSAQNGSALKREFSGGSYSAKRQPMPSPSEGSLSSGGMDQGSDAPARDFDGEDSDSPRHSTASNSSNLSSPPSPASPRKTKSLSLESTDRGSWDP
Chain of CDK8/cyclin C (P49336 whole entry): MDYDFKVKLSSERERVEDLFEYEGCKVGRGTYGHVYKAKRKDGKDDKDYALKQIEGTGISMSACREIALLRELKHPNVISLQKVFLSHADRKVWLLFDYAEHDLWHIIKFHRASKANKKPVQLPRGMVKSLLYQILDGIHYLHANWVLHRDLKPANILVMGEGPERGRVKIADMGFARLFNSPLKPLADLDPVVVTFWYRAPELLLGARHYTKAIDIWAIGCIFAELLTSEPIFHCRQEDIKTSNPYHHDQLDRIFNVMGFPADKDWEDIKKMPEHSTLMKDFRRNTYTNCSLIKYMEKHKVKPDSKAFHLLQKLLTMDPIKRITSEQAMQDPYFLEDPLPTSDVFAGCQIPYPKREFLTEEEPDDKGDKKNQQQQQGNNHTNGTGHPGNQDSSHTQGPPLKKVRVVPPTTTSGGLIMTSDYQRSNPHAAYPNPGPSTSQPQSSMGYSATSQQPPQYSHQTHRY
Chain of CDK8/cyclin C (P24863 whole entry partner): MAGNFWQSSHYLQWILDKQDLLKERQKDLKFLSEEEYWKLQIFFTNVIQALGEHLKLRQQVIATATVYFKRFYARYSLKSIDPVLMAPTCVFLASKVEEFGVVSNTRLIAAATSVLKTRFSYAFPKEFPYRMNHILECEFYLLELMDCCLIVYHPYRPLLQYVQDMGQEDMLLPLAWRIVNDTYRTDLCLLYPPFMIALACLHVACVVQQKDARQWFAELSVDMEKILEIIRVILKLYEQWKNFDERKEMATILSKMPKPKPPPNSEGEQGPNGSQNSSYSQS

C#CCOc1ccc(Nc2ncc(Cl)c(Nc3ccccc3NC(=O)C=C)n2)c(OC)c1 [Compound 6]
Inhibition at 1 µM (%) (TNK1; 1 µM, ZLYTE, ATP Km app): 41%
inhibition at 1 µM (TNK1; 1 h): 41%
inhibition at 1 µM (TNK1; read-out: Inhibition at 1 µM (%)): 41%
IC50 (STK33): 1000 nM
Inhibition at 1 µM (%) (STK33; 1 µM, LanthaScreen Binding, listed as WEL028, 1 µM): 61%
inhibition at 1 µM (STK33; [1]): 60%
inhibition at 10 µM (STK33; 1 h, log[inhibitor] (M) -5.00, LanthaScreen Binding): 33%
inhibition at 3.311 µM (STK33; 1 h, log[inhibitor] (M) -5.48, LanthaScreen Binding): 58%
inhibition at 1.122 µM (STK33; 1 h, log[inhibitor] (M) -5.95, LanthaScreen Binding): 69%
inhibition at 0.3715 µM (STK33; 1 h, log[inhibitor] (M) -6.43, LanthaScreen Binding): 43%
inhibition at 0.123 µM (STK33; 1 h, log[inhibitor] (M) -6.91, LanthaScreen Binding): 23%
inhibition at 0.04074 µM (STK33; 1 h, log[inhibitor] (M) -7.39, LanthaScreen Binding): 19%
inhibition at 0.0138 µM (STK33; 1 h, log[inhibitor] (M) -7.86, LanthaScreen Binding): 6%
inhibition at 0.004571 µM (STK33; 1 h, log[inhibitor] (M) -[…], LanthaScreen Binding): 7%
Apparent fold selectivity (STK33; IC50 on that kinase divided by IC50 on FES^S700C): 254 fold
inhibition at 1 µM (STK33; read-out: Inhibition at 1 µM (%), 1 µM, LanthaScreen Binding): 59%
Morphology (FES^S700C HL-60 cells; 100 nM WEL028): macrophage morphology
Morphology (FES^S700C HL-60 cells; 1 µM WEL028): morphology is similar to non-differentiated cells
Inhibition (%) (LATS2; 1 μM WEL028, 1 h preincubation): 2%
Inhibition at 1 µM (%) (LATS2): 3%
Inhibition at 1 µM (%) (LATS2; listed as WEL028, 1 µM): 0%
inhibition at 1 µM (CDK8/cyclin C): 0%
inhibition at 1 µM (CDC42 BPA (MRCKA); [1]): -7%
Inhibition at 1 µM (%) (CDC42 BPA (MRCKA); CDC42 BPA (MRCKA), 1 µM, ZLYTE, ATP Km app): -20%
